{
  "source": "ChEMBL document CHEMBL1201862",
  "about": "“PubChem BioAssay data set” (2004)",
  "key": {"[1]": {"assay": "Luminescence Cell-Based Dose Confirmation HTS to Identify Activators of 5'UTR Stem-Loop Driven Alpha-Synuclein mRNA Translation in H4 Neuroglioblastoma Cells. [Related pubchem assays: 1829 (Project Summary), 1814 (Primary HTS)]", "format": "functional"}, "[2]": {"assay": "Luminescence Cell-Based Dose Response HTS to Identify Activators of Luciferase Translation or Activity in H4 […] Cells. [Related pubchem assays: 1829 (Project Summary), 1814 (Primary HTS)]", "format": "functional"}, "[3]": {"system": "H4", "assay": "Luminescence Cell-Based Dose Response HTS to Identify Activators of 5'UTR Stem-Loop Driven Prion Protein mRNA Translation in H4 Neuroglioblastoma Cells. [Related pubchem assays: 1829 (Project Summary), 1814 (Primary HTS)]", "format": "functional", "conditions": "Homo sapiens"}, "[4]": {"system": "Escherichia coli", "assay": "microbe, parasite or virus in culture"}, "[5]": {"target": "26S proteasome non-ATPase regulatory subunit 14 (Homo sapiens, UniProt O00487)", "sequence (O00487 whole entry)": "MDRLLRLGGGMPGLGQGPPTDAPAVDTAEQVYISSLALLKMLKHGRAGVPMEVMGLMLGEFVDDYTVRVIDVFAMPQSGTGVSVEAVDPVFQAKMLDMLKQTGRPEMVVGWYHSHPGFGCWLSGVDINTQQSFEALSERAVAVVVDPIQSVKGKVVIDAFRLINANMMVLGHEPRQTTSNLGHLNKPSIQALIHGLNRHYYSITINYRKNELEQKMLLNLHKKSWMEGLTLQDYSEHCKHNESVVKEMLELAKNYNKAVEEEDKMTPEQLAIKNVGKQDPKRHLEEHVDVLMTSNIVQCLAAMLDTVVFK", "assay": "inhibition of proteasome subunit RPN11 – biochemical, fluorescence polarization, uHTS hits, confirmation (AID 602368)", "format": "functional"}, "[6]": {"target": "72 kDa type IV collagenase (Homo sapiens, UniProt P08253)", "sequence (P08253 whole entry)": "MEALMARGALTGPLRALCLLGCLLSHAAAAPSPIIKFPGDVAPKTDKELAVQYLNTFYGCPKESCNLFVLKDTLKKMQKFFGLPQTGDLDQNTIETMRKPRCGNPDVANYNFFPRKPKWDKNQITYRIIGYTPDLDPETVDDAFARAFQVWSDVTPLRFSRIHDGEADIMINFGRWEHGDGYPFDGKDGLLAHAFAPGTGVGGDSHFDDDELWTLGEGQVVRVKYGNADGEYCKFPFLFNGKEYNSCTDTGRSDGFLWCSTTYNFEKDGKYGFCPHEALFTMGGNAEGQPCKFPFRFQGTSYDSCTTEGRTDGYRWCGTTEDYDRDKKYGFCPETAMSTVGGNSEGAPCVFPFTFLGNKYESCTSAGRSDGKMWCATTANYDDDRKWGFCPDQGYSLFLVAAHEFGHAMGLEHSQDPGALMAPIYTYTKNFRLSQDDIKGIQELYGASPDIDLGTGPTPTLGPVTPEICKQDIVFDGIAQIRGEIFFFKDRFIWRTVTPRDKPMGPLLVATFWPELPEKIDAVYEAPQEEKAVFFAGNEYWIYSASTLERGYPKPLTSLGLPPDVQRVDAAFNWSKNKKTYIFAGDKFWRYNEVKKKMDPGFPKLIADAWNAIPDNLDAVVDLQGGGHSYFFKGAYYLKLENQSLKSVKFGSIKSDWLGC", "assay": "Dose Response validation of uHTS RPN11 inhibitor hits using a MMP-2 Fluorescence assay.", "format": "functional"}, "[7]": {"target": "Prothrombin (Bos taurus, UniProt P00735)", "assay": "thrombin inhibition, dose response, biochemical, fluorescence polarization, uHTS hits (AID 602369)", "format": "functional"}, "[8]": {"system": "HEK293", "assay": "cytotoxicity in HEK293T NF-kB-Luc cells, SAR follow-up, cytotoxicity control for NF-kB activator project, cell-based, resazurin fluorescence (AID 493251)", "format": "functional", "conditions": "Homo sapiens"}, "[9]": {"system": "Jurkat", "assay": "SAR Analysis of small molecule inhibitors of T-cell specific antigen receptor-induced NF-kB activation in a Jurkat cell line using a luminescence assay - Set 2. [Related pubchem assays (depositor defined):AID435003, AID435012, AID465]", "format": "functional, cell-based", "conditions": "Homo sapiens"}, "[10]": {"system": "HEK293", "assay": "SAR Analysis of small molecule inhibitors of T-cell specific antigen receptor-induced NF-kB activation in a HEK-293T cell line using a luminescence assay - Set 2. [Related pubchem assays (depositor defined):AID435003, AID435012, AID489026]", "format": "functional, cell-based", "conditions": "Homo sapiens"}, "[11]": {"target": "DNA (cytosine-5)-methyltransferase 1 (Homo sapiens, UniProt P26358)", "sequence (P26358 whole entry)": "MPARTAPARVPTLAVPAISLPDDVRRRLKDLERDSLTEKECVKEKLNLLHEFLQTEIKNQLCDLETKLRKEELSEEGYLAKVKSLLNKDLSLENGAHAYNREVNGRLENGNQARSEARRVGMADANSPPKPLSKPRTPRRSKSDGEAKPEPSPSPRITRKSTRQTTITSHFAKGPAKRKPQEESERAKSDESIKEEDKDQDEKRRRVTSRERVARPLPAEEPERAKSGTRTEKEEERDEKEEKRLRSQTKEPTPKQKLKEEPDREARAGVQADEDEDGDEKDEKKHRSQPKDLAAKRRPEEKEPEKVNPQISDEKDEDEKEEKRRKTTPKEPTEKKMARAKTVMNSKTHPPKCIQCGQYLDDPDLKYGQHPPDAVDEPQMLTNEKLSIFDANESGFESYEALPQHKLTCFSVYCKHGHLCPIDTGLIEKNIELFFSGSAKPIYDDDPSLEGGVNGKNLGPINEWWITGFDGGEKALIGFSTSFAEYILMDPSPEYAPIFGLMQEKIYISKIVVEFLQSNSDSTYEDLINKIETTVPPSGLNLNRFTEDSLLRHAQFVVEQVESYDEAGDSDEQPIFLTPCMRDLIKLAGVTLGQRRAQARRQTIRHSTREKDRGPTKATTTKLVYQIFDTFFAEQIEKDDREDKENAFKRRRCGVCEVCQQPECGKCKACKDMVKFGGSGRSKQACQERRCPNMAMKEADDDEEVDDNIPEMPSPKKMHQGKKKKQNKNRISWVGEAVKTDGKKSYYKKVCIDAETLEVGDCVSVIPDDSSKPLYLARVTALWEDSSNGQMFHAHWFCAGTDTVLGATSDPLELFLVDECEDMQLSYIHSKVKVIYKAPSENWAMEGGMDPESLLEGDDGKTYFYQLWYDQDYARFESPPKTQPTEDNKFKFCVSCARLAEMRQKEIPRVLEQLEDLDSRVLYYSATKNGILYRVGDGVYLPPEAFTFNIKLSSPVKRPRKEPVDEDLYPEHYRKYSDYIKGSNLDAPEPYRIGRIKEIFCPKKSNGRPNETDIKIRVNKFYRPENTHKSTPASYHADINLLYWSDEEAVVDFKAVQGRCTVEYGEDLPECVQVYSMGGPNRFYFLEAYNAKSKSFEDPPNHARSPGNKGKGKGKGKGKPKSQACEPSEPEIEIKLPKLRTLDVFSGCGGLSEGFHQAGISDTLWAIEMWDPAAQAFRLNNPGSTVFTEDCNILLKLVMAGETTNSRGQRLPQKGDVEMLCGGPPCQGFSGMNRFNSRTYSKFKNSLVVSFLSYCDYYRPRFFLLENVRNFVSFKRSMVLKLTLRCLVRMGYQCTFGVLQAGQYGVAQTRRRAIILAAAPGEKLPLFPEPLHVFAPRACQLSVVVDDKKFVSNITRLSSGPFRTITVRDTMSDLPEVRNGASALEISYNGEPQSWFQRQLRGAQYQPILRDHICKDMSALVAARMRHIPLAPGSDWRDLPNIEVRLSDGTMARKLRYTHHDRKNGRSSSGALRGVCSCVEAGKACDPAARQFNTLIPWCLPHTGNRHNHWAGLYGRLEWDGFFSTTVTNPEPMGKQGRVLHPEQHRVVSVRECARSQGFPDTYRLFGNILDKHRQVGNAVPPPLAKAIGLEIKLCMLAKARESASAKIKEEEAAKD", "assay": "DNMT1 methyltransferase inhibitors, confirmation, biochemical, fluorescent molecular beacon (AID 602386)", "format": "functional"}, "[12]": {"target": "T1, Histone-lysine N-methyltransferase NSD2 (Homo sapiens, UniProt O96028)", "T1 sequence (O96028 whole entry)": "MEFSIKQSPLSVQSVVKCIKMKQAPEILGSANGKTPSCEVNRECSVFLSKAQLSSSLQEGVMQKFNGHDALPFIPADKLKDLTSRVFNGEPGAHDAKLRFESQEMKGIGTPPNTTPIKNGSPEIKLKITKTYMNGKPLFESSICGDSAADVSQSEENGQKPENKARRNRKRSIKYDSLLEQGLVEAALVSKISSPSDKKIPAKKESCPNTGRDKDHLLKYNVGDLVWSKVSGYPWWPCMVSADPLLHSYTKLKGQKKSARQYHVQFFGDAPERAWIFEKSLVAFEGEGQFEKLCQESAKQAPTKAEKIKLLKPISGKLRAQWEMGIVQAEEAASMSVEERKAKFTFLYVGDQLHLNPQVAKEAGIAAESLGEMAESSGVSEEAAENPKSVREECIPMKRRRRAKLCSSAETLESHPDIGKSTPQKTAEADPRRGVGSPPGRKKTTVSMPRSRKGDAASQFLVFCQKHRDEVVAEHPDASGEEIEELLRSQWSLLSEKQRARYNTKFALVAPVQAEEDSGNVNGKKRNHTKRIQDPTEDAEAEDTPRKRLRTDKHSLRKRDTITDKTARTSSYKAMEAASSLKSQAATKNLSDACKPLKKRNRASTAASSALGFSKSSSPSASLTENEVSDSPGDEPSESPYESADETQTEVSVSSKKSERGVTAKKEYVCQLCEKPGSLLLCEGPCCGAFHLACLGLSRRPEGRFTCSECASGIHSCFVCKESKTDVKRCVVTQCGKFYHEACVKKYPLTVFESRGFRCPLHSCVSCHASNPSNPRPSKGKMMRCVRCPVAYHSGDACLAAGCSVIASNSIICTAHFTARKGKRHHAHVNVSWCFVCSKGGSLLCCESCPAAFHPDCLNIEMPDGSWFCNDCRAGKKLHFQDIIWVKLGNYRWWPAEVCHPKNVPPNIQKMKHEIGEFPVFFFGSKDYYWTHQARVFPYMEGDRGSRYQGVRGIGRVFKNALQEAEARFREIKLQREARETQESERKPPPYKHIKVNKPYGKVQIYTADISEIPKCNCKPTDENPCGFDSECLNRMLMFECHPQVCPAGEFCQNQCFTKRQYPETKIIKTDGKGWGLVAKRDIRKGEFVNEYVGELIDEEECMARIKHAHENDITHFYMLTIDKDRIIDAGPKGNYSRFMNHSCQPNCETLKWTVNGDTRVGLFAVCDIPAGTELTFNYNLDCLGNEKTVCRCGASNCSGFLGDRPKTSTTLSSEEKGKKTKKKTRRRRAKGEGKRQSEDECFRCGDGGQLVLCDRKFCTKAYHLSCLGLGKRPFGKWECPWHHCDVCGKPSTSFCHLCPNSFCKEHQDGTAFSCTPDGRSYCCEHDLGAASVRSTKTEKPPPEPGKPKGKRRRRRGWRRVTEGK", "format": "biochemical"}, "[13]": {"system": "HEK293", "assay": "NOD1 signaling inhibitors, primary screen, cell-based, luminescence, uHTS (AID 1578)", "format": "functional", "conditions": "Homo sapiens"}, "[14]": {"system": "HEK293", "assay": "cells", "format": "functional, cell-based", "conditions": "Homo sapiens"}, "[15]": {"system": "HEK293", "assay": "cells", "format": "functional, cell-based", "conditions": "Homo sapiens", "remark": "listed apart in the source"}, "[16]": {"system": "HEK293", "assay": "NOD2 signaling inhibitors in MDP-stimulated cells, cell-based, uHTS, luminescence (AID 2001)", "format": "functional", "conditions": "Homo sapiens"}, "[17]": {"assay": "inhibitors of intracellular T. cruzi replication, confirmation, NIH3T3 host cells, beta-gal luminescence (AID 2044);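 note: luminescent beta-galactosidase reporter signal from transgenic T. cruzi replicating inside host cells; inhibitors lower the luminescence signal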", "format": "functional, cell-based"}, "[18]": {"assay": "cytotoxicity toward NIH3T3 fibroblasts, dose response, counter-screen, cell-based, ATP luminescence, mouse fibroblasts (AID 2010);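 note: cells exposed to compound for about 90 hours before reading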", "format": "functional"}, "[19]": {"target": "FAD-linked sulfhydryl oxidase ALR (Homo sapiens, UniProt P55789)", "sequence (P55789 whole entry)": "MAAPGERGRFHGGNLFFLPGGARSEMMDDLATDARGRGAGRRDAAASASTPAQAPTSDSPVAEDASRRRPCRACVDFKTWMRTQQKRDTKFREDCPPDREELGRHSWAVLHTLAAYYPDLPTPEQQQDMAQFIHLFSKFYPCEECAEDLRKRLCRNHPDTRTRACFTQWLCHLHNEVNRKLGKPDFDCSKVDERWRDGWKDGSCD", "assay": "inhibitors of human ALR sulfhydryl oxidase, dose response, biochemical, H2O2 detection, luminescence, cherry-pick (AID 493248)"}, "[20]": {"assay": "cells"}},
  "note": "The source made the active and inactive calls.",
  "data": [
    {"smiles": "CC1Cc2cc(C(=O)C3=C(O)C(=O)N(Cc4ccco4)C3c3cccs3)ccc2O1", "note": "(configuration not stated)", "values": [
      {"measurement": "EC50", "setting": "[1]", "result": "11.9 µM (active)"},
      {"measurement": "EC50", "setting": "[2]", "result": "8.54 µM (active)"},
      {"measurement": "EC50", "setting": "[3]", "result": "35.2 µM (active)"},
      {"measurement": "AC50", "setting": "[4]", "result": "18.3 µM (active)"}
    ]},
    {"smiles": "COc1ccc(C2SCCN2S(=O)(=O)c2ccccc2)cc1", "note": "(configuration not stated)", "values": [
      {"measurement": "AC50", "setting": "[4]", "result": "95.3 µM (active)"}
    ]},
    {"smiles": "COc1ccc(/C=C2\\Oc3cc(OCC(=O)N4CCC[C@H]4C(=O)O)ccc3C2=O)c(OC)c1", "values": [
      {"measurement": "IC50", "setting": "[5]", "result": "11 µM (active)"},
      {"measurement": "IC50", "setting": "[6]", "result": "> 100 µM (inactive)"},
      {"measurement": "IC50", "setting": "[7]", "result": "14.3 µM (active)"}
    ]},
    {"smiles": "CCOc1ccc(C(=O)Nc2ccc(NC(=O)c3cc4ccccc4o3)cc2)cc1[N+](=O)[O-]", "values": [
      {"measurement": "IC50", "setting": "[8]", "result": "> 80 µM (inactive)"},
      {"measurement": "IC50", "setting": "[9]", "result": "48.8 µM (inactive)"},
      {"measurement": "IC50", "setting": "[10]", "result": "> 80 µM (inactive)"}
    ]},
    {"smiles": "COc1ccc(C(=O)Nc2ccc(NC(=O)c3cc4ccccc4o3)cc2)cc1OC", "values": [
      {"measurement": "IC50", "setting": "[8]", "result": "> 80 µM (inactive)"},
      {"measurement": "IC50", "setting": "[9]", "result": "> 79 µM (inactive)"},
      {"measurement": "IC50", "setting": "[10]", "result": "> 80 µM (inactive)"}
    ]},
    {"smiles": "Cc1cc(-c2nc3ncccc3o2)ccc1NC(=O)c1ccc([N+](=O)[O-])o1", "values": [
      {"measurement": "IC50", "setting": "[8]", "result": "32 µM (inactive)"},
      {"measurement": "IC50", "setting": "[9]", "result": "19.4 µM (active)"},
      {"measurement": "IC50", "setting": "[10]", "result": "30 µM (inactive)"}
    ]},
    {"smiles": "ClN=C1C=CC=CC1=NCl", "values": [
      {"measurement": "IC50", "setting": "[11]", "result": "7.2 µM (active)"},
      {"measurement": "AC50", "setting": "[12]", "result": "4.62 µM (active)"}
    ]},
    {"smiles": "Cc1ccc2c(c1)N(C)/C(=C/c1cccc[n+]1C)S2", "values": [
      {"measurement": "EC50", "setting": "[13]", "result": "13.3 µM (active)"},
      {"measurement": "IC50", "setting": "[14]", "result": "10.6 µM (active)"},
      {"measurement": "IC50", "setting": "[15]", "result": "> 20 µM (inactive)"},
      {"measurement": "IC50", "setting": "[16]", "result": "17 µM (inactive)"},
      {"measurement": "EC50", "setting": "[17]", "result": "< 0.1 µM (active)"},
      {"measurement": "EC50", "setting": "[18]", "result": "> 60 µM (not active)"},
      {"measurement": "AC50", "setting": "[19]", "result": "63.1 µM (active)"},
      {"measurement": "EC50", "setting": "[20]", "result": "0.015 µM (active)"}
    ]}
  ]
}
